The subject of one experiment is Plasmopara viticola. Put plainly: Antisporulant activity against vine downy mildew (PVA). Format: in vivo. The settings on record: vine leaves, antisporulant foliar spray, 600 ppm, 750 l/ha. A digest of the protocol:
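Cabernet Sauvignon vines (~8 cm) inoculated on lower leaf surfaces with 5×10^4 zoosporangia/ml, held 24 h at 21° C high humidity then 24 h glasshouse. Infected leaves sprayed underside with 600 ppm compound in 1:1 water/acetone, 0.04% Tween 20, 750 l/ha; 96 h glasshouse, 24 h humidity. Sporulating leaf area rated versus control.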

Another experiment relates to Alternaria solani. Put plainly: Activity against tomato early blight (AS). The settings on record: Table VI; tomato seedlings, contact prophylactic foliar spray, 4 days. Type of experiment: in vivo. In outline: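 Plants were challenged with A. solani conidia (10^4 spores/ml) 24 h after a protective foliar spray of compound in 50:50 acetone/water plus 0.04% Tween 20. Held humid at 21° C for 4 days, then percent leaf area with lesions was scored as a rating relative to controls.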

The next experiment deals with Botrytis cinerea. The experiment can be described thus: Direct protectant activity against broad bean grey mould (BCB). The following applies: direct protectant foliar spray, 600 ppm, 4 days. Type of experiment: in vivo. In outline:
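Protectant foliar test: lesion coverage assessed 4 days after inoculation and rated relative to untreated or diluent-sprayed plants. Compound applied at 600 ppm to cv The Sutton leaves 24 h before 10^6 conidia/ml suspension; incubation at 22 °C in high humidity.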

Another experiment has as its system Leptosphaeria nodorum. Put plainly: Activity against wheat leafspot (LN). The settings on record: direct therapeutic foliar spray, 600 ppm, 6-8 days. Type of experiment: in vivo. A digest of the protocol: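 Therapeutic foliar spray: compound at 600 ppm applied to single-leaf wheat (cv Norman) 24 h after inoculation with 1.5×10^6 conidia/ml. Disease control scored after 6-8 days at 22° C and 70% humidity as lesions per leaf versus untreated or diluent-sprayed controls.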

The subject of experiment [1] is Erysiphe graminis f.sp. hordei. The experiment can be described thus: Activity against barley powdery mildew, direct therapeutic (EGT). The settings on record: direct therapeutic foliar spray, 600 ppm, up to 7 days. Type of experiment: in vivo. A digest of the protocol:
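A curative spray at 600 ppm was applied to single-leaf Golden Promise barley inoculated with powdery mildew conidia the previous day. After up to 7 days at 18 °C and 40% humidity, disease control was rated from percent leaf area sporulating relative to untreated or diluent-sprayed controls.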

Experiment [2] has as its system Erysiphe graminis f.sp. hordei. Put plainly: Direct protectant activity against barley powdery mildew (EGP). Type of experiment: in vivo. The following applies: direct protectant foliar spray, 8 days. In outline: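 Rating reflects percentage of leaf area with sporulation compared with untreated or diluent-sprayed controls. Protectant spray was applied to single-leaf barley (cv Golden Promise) 24 h before conidia inoculation. Plants were kept at 18 °C and 40% RH throughout, with 8 days of disease development.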

For a further experiment, the system named is Phytophthora infestans. Format: in vivo. The following applies: tomato, direct protectant foliar spray.
Experiment [3] concerns Pseudocercosporella herpotrichoides. Put plainly: Activity against wheat eyespot in-vitro (PHI). Type of experiment: cell-based. The settings on record: 10 ppm, 10 days, 20° C., mycelial growth. A digest of the protocol:
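Mycelial growth was scored after 10 days at 20 °C against untreated or diluent controls. The broth was half-strength potato dextrose, holding 10 ppm test compound (from acetone) and 5×10^4 fragments/ml of the eyespot fungus.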

For another experiment, the system named is Rhizoctonia solani. Put plainly: Activity against Rhizoctonia in-vitro (RSI). Format: cell-based. The settings on record: 10 ppm, 10 days, 20° C., mycelial growth. In outline: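 Compound at a final 10 ppm (acetone vehicle) in half-strength PDB, inoculated with 5×10^4 fragments/ml of shaken-culture R. solani mycelium. After incubation at 20° C for 10 days, growth scored as a rating versus untreated or diluent-treated controls.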

The test system of another experiment is Venturia inaequalis. Put plainly: Activity against apple scab in-vitro (VII). The settings on record: 10 ppm, 10 days, 20° C., mycelial growth. Format: cell-based. A digest of the protocol: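 V. inaequalis propagules (5×10^4/ml, malt agar-grown) were exposed in half-strength PDB to 10 ppm final test compound delivered in acetone. Growth was scored after incubation for 10 days at 20° C, as a rating relative to untreated or diluent-sprayed controls.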

The next experiment deals with Pyricularia oryzae. Type of experiment: in vivo. The following applies: rice seedlings, direct therapeutic foliar spray, 600 ppm, 4-5 days.

As for `CCCCN(Cc1cccnc1)C1COC2(CCC(C(C)(C)C)CC2)C1` (stereo not shown) [Compound 48], the “disease control rating PVA” value in the experiment on Plasmopara viticola is on record as 0 (less than 50% disease control). In addition, in the experiment with Alternaria solani, the “disease control rating AS” value is given as 2 (greater than 80% disease control). Besides, the “disease control rating BCB” value in the experiment on Botrytis cinerea is recorded as 0 (less than 50% disease control). Also, the “disease control rating LN” value with Leptosphaeria nodorum is 0 (less than 50% disease control). Moreover, the “disease control rating EGT” value in [1] is on record as 2 (greater than 80% disease control). The “disease control rating EGP” value in [2] is recorded as 2 (greater than 80% disease control). The “disease control rating PIP” value in the experiment on Phytophthora infestans is 0 (less than 50% disease control). Also, the “disease control rating PHI” value in experiment [3] is given as 0 (less than 50% disease control). In addition, the “disease control rating RSI” value in the experiment with Rhizoctonia solani was 0 (less than 50% disease control). Moreover, the “disease control rating VII” value in the experiment on Venturia inaequalis is on record as 1 (about 50-80% disease control). Also, the “disease control rating PO” value with Pyricularia oryzae was 0 (less than 50% disease control).

For `CCCCCNC1COC2(CCC(C(C)(C)CC)CC2)C1` (stereo not shown) [Compound 49], the “disease control rating PVA” value in the experiment with Plasmopara viticola is reported as 0 (less than 50% disease control). In addition, the “disease control rating AS” value in the experiment with Alternaria solani is listed as 0 (less than 50% disease control). Besides, the “disease control rating BCB” value in the experiment with Botrytis cinerea is reported as 0 (less than 50% disease control). In addition, the “disease control rating LN” value in the experiment with Leptosphaeria nodorum is given as 2 (greater than 80% disease control). Also, the “disease control rating EGT” value in experiment [1] is on record as 2 (greater than 80% disease control). In experiment [2], the “disease control rating EGP” value is reported as 2 (greater than 80% disease control). In the experiment on Phytophthora infestans, the “disease control rating PIP” value was 2 (greater than 80% disease control). For the same compound, the “disease control rating PHI” value in experiment [3] is 2 (greater than 80% disease control). For the same compound, the “disease control rating RSI” value with Rhizoctonia solani is on record as 1 (about 50-80% disease control). Moreover, the “disease control rating VII” value with Venturia inaequalis is 1 (about 50-80% disease control). In addition, the “disease control rating PO” value in the experiment on Pyricularia oryzae is listed as 0 (less than 50% disease control).

Turning to `CCCCCN(CCCCC)C1COC2(CCC(C(C)(C)CC)CC2)C1` (stereo not shown) [Compound 50], the “disease control rating PVA” value in the experiment with Plasmopara viticola is listed as 0 (less than 50% disease control). For the same compound, in the experiment with Alternaria solani, the “disease control rating AS” value is given as 0 (less than 50% disease control). In addition, the “disease control rating BCB” value with Botrytis cinerea is given as 0 (less than 50% disease control). Also, the “disease control rating LN” value with Leptosphaeria nodorum is given as 0 (less than 50% disease control). The “disease control rating EGT” value in experiment [1] is 2 (greater than 80% disease control). Also, the “disease control rating EGP” value in experiment [2] was 2 (greater than 80% disease control). The “disease control rating PIP” value with Phytophthora infestans is 0 (less than 50% disease control). For the same compound, the “disease control rating PHI” value in [3] is 0 (less than 50% disease control). Moreover, the “disease control rating RSI” value in the experiment with Rhizoctonia solani is 0 (less than 50% disease control). For the same compound, the “disease control rating VII” value in the experiment with Venturia inaequalis is 1 (about 50-80% disease control). Further, in the experiment on Pyricularia oryzae, the “disease control rating PO” value is 0 (less than 50% disease control).

Regarding `CCC(C)(C)C1CCC2(CC1)CC(NC1CCCCC1)CO2` (stereo not shown) [Compound 51], in the experiment with Plasmopara viticola, the “disease control rating PVA” value was 0 (less than 50% disease control). In the experiment on Alternaria solani, the “disease control rating AS” value is listed as 2 (greater than 80% disease control). Further, the “disease control rating BCB” value in the experiment on Botrytis cinerea is 0 (less than 50% disease control). Moreover, in the experiment on Leptosphaeria nodorum, the “disease control rating LN” value is on record as 0 (less than 50% disease control). Further, the “disease control rating EGT” value in [1] is on record as 2 (greater than 80% disease control). Besides, the “disease control rating EGP” value in experiment [2] is on record as 2 (greater than 80% disease control). In addition, the “disease control rating PIP” value in the experiment with Phytophthora infestans is 2 (greater than 80% disease control). In addition, in experiment [3], the “disease control rating PHI” value is 1 (about 50-80% disease control). Also, the “disease control rating RSI” value with Rhizoctonia solani was 1 (about 50-80% disease control). Also, the “disease control rating VII” value in the experiment with Venturia inaequalis was 1 (about 50-80% disease control). For the same compound, in the experiment on Pyricularia oryzae, the “disease control rating PO” value is 0 (less than 50% disease control).

Regarding `CCC(C)(C)C1CCC2(CC1)CC(N1CC(C)CC(C)C1)CO2` (stereo not shown) [Compound 52], the “disease control rating PVA” value in the experiment on Plasmopara viticola is given as 0 (less than 50% disease control). For the same compound, the “disease control rating AS” value in the experiment on Alternaria solani is listed as 0 (less than 50% disease control). Besides, in the experiment with Botrytis cinerea, the “disease control rating BCB” value is recorded as 0 (less than 50% disease control). In addition, in the experiment on Leptosphaeria nodorum, the “disease control rating LN” value is recorded as 0 (less than 50% disease control). Besides, the “disease control rating EGT” value in [1] is reported as 2 (greater than 80% disease control). Further, in [2], the “disease control rating EGP” value was 2 (greater than 80% disease control). Besides, the “disease control rating PIP” value in the experiment on Phytophthora infestans was 0 (less than 50% disease control). Besides, the “disease control rating PHI” value in experiment [3] is recorded as 1 (about 50-80% disease control). Further, the “disease control rating RSI” value in the experiment on Rhizoctonia solani is on record as 1 (about 50-80% disease control). Also, in the experiment with Venturia inaequalis, the “disease control rating VII” value is given as 1 (about 50-80% disease control). The “disease control rating PO” value with Pyricularia oryzae was 0 (less than 50% disease control).

Take `CCC(C)(C)C1CCC2(CC1)CC(N1CC(C)OC(C)C1)CO2` (stereo not shown) [Compound 53]: the “disease control rating PVA” value in the experiment on Plasmopara viticola was 0 (less than 50% disease control). Besides, the “disease control rating AS” value in the experiment on Alternaria solani is 0 (less than 50% disease control). Moreover, the “disease control rating BCB” value with Botrytis cinerea is reported as 1 (about 50-80% disease control). For the same compound, the “disease control rating LN” value with Leptosphaeria nodorum is 0 (less than 50% disease control). In addition, the “disease control rating EGT” value in [1] is recorded as 2 (greater than 80% disease control). Further, the “disease control rating EGP” value in [2] is 2 (greater than 80% disease control). In addition, the “disease control rating PIP” value in the experiment on Phytophthora infestans is listed as 0 (less than 50% disease control). In addition, the “disease control rating PHI” value in experiment [3] is recorded as 1 (about 50-80% disease control). For the same compound, the “disease control rating RSI” value in the experiment with Rhizoctonia solani is reported as 0 (less than 50% disease control). Besides, the “disease control rating VII” value in the experiment with Venturia inaequalis was 1 (about 50-80% disease control). The “disease control rating PO” value in the experiment with Pyricularia oryzae is on record as 0 (less than 50% disease control).

On to `CCCCCNC1COC2(CCC(c3ccccc3)CC2)C1` (stereo not shown) [Compound 54], for which the “disease control rating PVA” value with Plasmopara viticola is on record as 0 (less than 50% disease control). In addition, the “disease control rating AS” value with Alternaria solani was 0 (less than 50% disease control). Further, the “disease control rating BCB” value with Botrytis cinerea was 0 (less than 50% disease control). The “disease control rating LN” value with Leptosphaeria nodorum was 0 (less than 50% disease control). Moreover, the “disease control rating EGT” value in experiment [1] is on record as 2 (greater than 80% disease control). Also, in [2], the “disease control rating EGP” value was 2 (greater than 80% disease control). In addition, the “disease control rating PIP” value in the experiment on Phytophthora infestans is reported as 0 (less than 50% disease control). Moreover, the “disease control rating PHI” value in [3] is reported as 0 (less than 50% disease control). Further, the “disease control rating RSI” value in the experiment on Rhizoctonia solani was 0 (less than 50% disease control). Besides, in the experiment on Venturia inaequalis, the “disease control rating VII” value is given as 1 (about 50-80% disease control). For the same compound, in the experiment with Pyricularia oryzae, the “disease control rating PO” value is 0 (less than 50% disease control).

Regarding `CCCCN(CCCC)C1COC2(CCC(c3ccccc3)CC2)C1` (stereo not shown) [Compound 55], the “disease control rating PVA” value in the experiment with Plasmopara viticola is reported as 0 (less than 50% disease control). Besides, the “disease control rating AS” value in the experiment with Alternaria solani is reported as 0 (less than 50% disease control). Besides, the “disease control rating BCB” value in the experiment with Botrytis cinerea was 2 (greater than 80% disease control). In addition, the “disease control rating LN” value in the experiment on Leptosphaeria nodorum was 1 (about 50-80% disease control). For the same compound, in [1], the “disease control rating EGT” value is listed as 2 (greater than 80% disease control). Further, in [2], the “disease control rating EGP” value was 2 (greater than 80% disease control). The “disease control rating PIP” value in the experiment on Phytophthora infestans was 0 (less than 50% disease control). Also, the “disease control rating PHI” value in experiment [3] is listed as 0 (less than 50% disease control). Also, the “disease control rating RSI” value in the experiment on Rhizoctonia solani was 0 (less than 50% disease control). In addition, in the experiment on Venturia inaequalis, the “disease control rating VII” value is on record as 1 (about 50-80% disease control). For the same compound, the “disease control rating PO” value in the experiment with Pyricularia oryzae is given as 0 (less than 50% disease control).

Values taken from patent US5591741A, “Fungicidal spiroheterocyclic derivatives” (American Cyanamid Company, priority 1993, dated 1997).
